Measurements from patent US8598127B2, “Peptides for inhibiting MDM2 function” (Korea Research Institute of Bioscience & Biotechnology, priority 2004, dated 2013).
Where no end group is shown, it is not given here.

What was measured:
[1] = test system: Carcinoma cell lines, MCF-7, HCT 11 6, A549 and SNU-71; assay: MTT assay, induction of apoptosis of cancer cells; assay type: cell-based; settings: cancer cells treated for 18 hrs
Procedure: Carcinoma cell lines, MCF-7, HCT 11 6, A549 and SNU-71, were cultured in RPMI 1640 medium supplemented with 10% FBS and 100 U/ml penicillin/streptomycin in a humidified 5% CO2 incubator (Gibco-BRL, UK) at 37° C. The cultured cancer cells were treated for 18 hrs with HIV-1 Tat(48-60)-p53 TAD(50-54), an alanine-substituted peptide of SEQ ID NO. 7 and a trytophane-substituted peptide of SEQ ID NO. 11. Then, induction of apoptosis of cancer cells was determined by an MTT assay using the tetrazolium salt, 3-(4,5-dimethylthiazol-2-yl)-2,5-diphenyltetrazolium bromide (MTT). In the MTT assay, after the cancer cells were incubated for 2 hrs in RPMI 1640 medium supplemented with 10% FBS and 0.5 mg/ml MTT, the medium was removed, and 100 μl of DMSO was added.
Four carcinoma cell lines were treated for 18 hrs with HIV-1 Tat(48-60)-p53 TAD(50-54), which was prepared by linking a cell permeable peptide HIV-1 Tat(48-60) consisting of amino acid residues 48-60 of the HIV-1 Tat protein of SEQ ID NO. 22 to the N-terminal end of p53 TAD(50-54), and alanine-substituted and trytophane-substituted peptides thereof. Then, the induction of apoptosis of cancer cells was determined by an MTT assay, and the cancer cells were microscopically observed.

mdm2(3-109) = biological target: T1, mdm2(3-109) (Homo sapiens, UniProt Q00987); assay: Chemical shift perturbation experiment (15N-1H HSQC NMR titration of 15N-mdm2(3-109) with p53 TAD or fragment peptides); assay type: binding; settings: 0.2 mM 15N-mdm2(3-109), 25° C.; for binding affinity to mdm2 as indicated by chemical shift perturbation: 15N-1H HSQC titration
T1 construct: made in house; host or cells: E. coli BL21(DE3), pLM1 vector
Procedure: All NMR data were measured using a Varian Unity INOVA 600 MHz NMR spectrometer at 5° C. and 25° C. ^15N—^1H HSQC (heteronuclear single quantum coherence spectroscopy) spectra were collected with spectral widths of 8000 Hz in the ^1H dimension and 1800 Hz in the ^15N dimension, and with 1024 data points in the t2 domain and 256 data points in the t1 domain.
Also, ^15N—^1H HSQC spectra were collected for the ^15N-labeled mdm2(3-109) protein, dissolved in a buffer solution of 25 mM Tris HCl (pH 7.5), 150 mM NaCl, 2 mM DTT, 0.1 mM PMSF, 0.1 mM EDTA, 0.1 mM benzamidine and 0.02% NaN3, at 0.2 mM of ^15N-mdm2(3-109) and 25° C.
First, HSQC spectra of ^15N-mdm2(3-109) in a free state were collected (FIG. 4). […] Chemical shift assignments of mdm2(3-109) in a free and bound states were performed using 3D NMR experiments, HNCA, HNCOCA, ^15N-edited TOCSY and ^15N-edited NOESY spectrum analysis.
2D ^15N—^1H HSQC spectra were collected for the free (unbound) form of purified ^15N-labeled mdm2(3-109).

Row | binding affinity to mdm2 as indicated by chemical shift perturbation (mdm2(3-109)) | changes in chemical shift of 15N-mdm2(3-109) after addition of the peptide (mdm2(3-109); 15N-1H HSQC) | Substance | effect on apoptosis induction in cancer cells [1]
1 | – | – | DAEQAA | unable to induce apoptosis in cancer cells
2 | – | – | DIEQWF-NH2 [p53 TAD(49-54), DIEQWF] | effectively induces apoptosis
3 | low binding affinity to mdm2 | small change in chemical shift | DVEQVV (DVEQVV-NH2) [Val-substituted peptide having I50V/W53V/F54V substitutions relative to the native p53(49-54) peptide] | –
4 | – | – | DWEQWW | greatly higher activity in inducing apoptosis than the native DIEQWF
5 | high affinity | – | p53 TAD(1-73): recombinant p53 TAD domain corresponding to residues 1-73 of the TAD of human p53 | –
